Our source for the Ki values is ChEMBL document CHEMBL3763131, “Anion inhibition studies of the β-carbonic anhydrase from the pathogenic bacterium Vibrio cholerae” (Bioorg Med Chem Lett, 2016).

By Ki is commonly meant the dissociation constant of the complex between target and ligand, obtained from inhibition or displacement. Lower therefore signals a stronger hold on the target.

A short description of experiment [1]: Inhibition of Vibrio cholerae alpha-carbonic anhydrase preincubated for 15 mins by stopped-flow CO2 hydration assay.
For experiment [2], the target named is Carbonic anhydrase 1 (Homo sapiens, UniProt P00915). Briefly: Inhibition of human carbonic anhydrase 1 preincubated for 15 mins by stopped-flow CO2 hydration assay.

“And” between values parts separate entries of the source, which are not always exact repeats. Equal entries are not always repeated. Where only a bound is given, the exact number is not on record here.

Chain of Carbonic anhydrase 1 (P00915 whole entry): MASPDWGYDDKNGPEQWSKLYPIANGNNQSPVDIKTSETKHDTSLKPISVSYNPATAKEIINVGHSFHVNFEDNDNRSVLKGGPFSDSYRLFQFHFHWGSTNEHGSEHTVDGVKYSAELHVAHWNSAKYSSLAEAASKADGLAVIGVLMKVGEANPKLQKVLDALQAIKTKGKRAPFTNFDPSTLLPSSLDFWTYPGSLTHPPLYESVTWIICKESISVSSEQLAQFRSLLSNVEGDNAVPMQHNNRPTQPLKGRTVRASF

On to `O=S(=O)(O)NS(=O)(=O)O`, for which, in experiment [1], the affinity, expressed as Ki, was 88200 µM. Same read-out and setting: to `O=S(=O)(O)OOS(=O)(=O)O` belongs 84100 µM.

In the case of `F[B-](F)(F)F`, the Ki in experiment [1] and in experiment [2] was greater than 200000 µM in each case. In the case of `O=[N+]([O-])O`, the inhibition constant (Ki) in experiment [1] amounted to 670 µM. Same read-out and setting: in the case of `O=[Te](=O)(O)O` it was 14500 µM; in that of `[N-]=[N+]=[N-]`, 760 µM. Regarding `O=C(O)O` [BICARBONATE], the Ki in experiment [1] was 4640 µM and 5130 µM.

For the molecule `Br` [BROMIDE], the inhibition constant Ki in experiment [1] was 28000 µM. On the same count and under the same terms, in the case of `S=C(S)S` [CARBONOTRITHIOIC ACID] it was 88 µM.

`N#CO` [CYANATE] yielded a Ki in experiment [1] of 75 µM. This Ki and that of the molecule before are within 1.5-fold of each other.

In experiment [1], `CCN(CC)C(=S)S` [DITIOCARB] showed a Ki of 43 µM. Same read-out and setting: to `F` [FLUORIDE ION] belongs 800 µM; to `Cl` [HYDROCHLORIC ACID], 930 µM; to `S` [HYDROGEN SULFIDE], 74 µM. Still for that read-out and setting: to `I` [IODIDE] belongs 9730 µM. `N=C=[Se]` [ISOSELENOCYANATE]: the inhibition constant Ki is 760 µM in experiment [1] and 8.5 µM in experiment [2]. `N=C=S` [ISOTHIOCYANATE] had an inhibitory constant (Ki) in experiment [1] of 820 µM.

As to `O=NO` [NITROUS ACID], the Ki in experiment [1] turned out to be 34100 µM. Still for that read-out and setting: in the case of `[O-][Cl+3]([O-])([O-])O` [PERCHLORATE] it was greater than 200000 µM. The same measure, in the same setting: to `O=[As](O)(O)c1ccccc1` [PHENYLARSONIC ACID] belongs 23 µM; to `OB(O)c1ccccc1` [PHENYLBORONIC ACID], 7 µM. With `O=P(O)(O)OP(=O)(O)O` [PYROPHOSPHORIC ACID], the Ki in experiment [1] is 2960 µM. `O=[Se](=O)(O)O` [SELENIC ACID] displayed an inhibition constant Ki in experiment [1] of 60800 µM.

`NS(=O)(=O)O` [SULFAMATE] came in with an inhibition constant Ki in experiment [1] of 31 µM.

With `NS(N)(=O)=O` [SULFAMIDE], the affinity in experiment [1] corresponds to a Ki of 8 µM. This Ki lies about 3.9-fold lower than the previous one. The molecule `O=S(=O)(O)O` [SULFURIC ACID] registered an inhibition constant Ki in experiment [1] of 850 µM. This Ki is about 110-fold higher than that of the molecule before.

In turn, `O=S(O)O` [SULFUROUS ACID] gave a Ki in experiment [1] of 68 µM.
